According to patent US7253158B2, “Sulfonamides” (Hoffmann-La Roche Inc., priority 2004, dated 2007):
pIC50: −log10 of the molar value.

Target: T1, γ-secretase (Homo sapiens, UniProt P49768)
T1 construct: uses a HEK293 membrane fraction as a source of γ-secretase; endogenous in cells; host or cells: HEK293 (microsomal membrane fraction, solubilised in 0.25% CHAPSO)
Assay: in vitro γ-secretase assay (HEK293 membrane fraction, recombinant APP substrate, Abeta ELISA)
Type: biochemical
Conditions: γ-secretase inhibition
Text: Description of γ-Secretase Assay
The activity of test compounds can be evaluated in assays which measure the proteolytic cleavage of suitable substrates by γ-secretase activity. These can be cellular assays where e.g., a substrate of the γ-secretase is fused in its cytoplasmic domain to a transcription factor. Cells are transfected with this fusion gene and a reporter gene, e.g., firefly luciferase, which expression is enhanced by the transcription factor. Cleavage of the fused substrate by γ-secretase will lead to expression of the reporter gene which can be monitored in appropriate assays. The γ-secretase activity can also be determined in cell-free in vitro asays where e.g., a cell lysate containing the γ-secretase complex is incubated with a suitable APP-derived substrate which is cleaved to the Abeta peptides. The amount of produced peptides can be determined with specific ELISA assays. Cell lines of neuronal origin secrete Abeta peptides which can be measured with the specific ELISA assay. Treatment with compounds which inhibit γ-secretase leads to a reduction of secreted Abeta thus providing a measure of inhibition.
The in vitro assay of γ-secretase activity uses a HEK293 membrane fraction as a source of γ-secretase and a recombinant APP substrate. Latter consist of the C-terminal 100 amino acids of human APP fused to a 6× Histidin tail for purification which is expressed in E. coli in a regulatable expression vector, e.g. pEt15. This recombinant protein corresponds to the truncated APP fragment which results after […] of the extracellular domain and which constitutes the γ-secretase substrate. […] Hek293 cells are mechanically disrupted and the microsomal fraction is isolated by differential centrifugation.

Row | SMILES | pIC50
1 | CC(C)(CC(=O)O)c1ccc(CN([C@@H]2CCCCNC2=O)S(=O)(=O)c2ccc(Cl)cc2)cc1 [Example 218, 3-(4-{[(4-Chloro-benzenesulfonyl)-((R)-2-oxo-azepan-3-yl)-amino]-methyl}-phenyl)-3-methyl-butyric acid] | 6.68
2 | CC(C)(Cc1ccc(CN([C@@H]2CCCCNC2=O)S(=O)(=O)c2ccc(Cl)cc2)cc1)C(=O)O [Example 219, 3-(4-{[(4-Chloro-benzenesulfonyl)-((R)-2-oxo-azepan-3-yl)-amino]-methyl}-phenyl)-2,2-dimethyl-propionic acid] | 6.64
